Measurements from PubChem BioAssay (NCI).
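Protocol summary: plate cells (96-well), add compound at 5 concentrations, incubate 48 h, interpolate endpoints linearly. TGI denotes the concentration required for complete inhibition of growth.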

Experiments:
Test in all cases: NCI tumour cell line growth inhibition, 48 h
[1] = tested on: CAKI-1 renal
[2] = tested on: HOP-18 NSCLC
[3] = tested on: SNB-19 CNS
[4] = tested on: UO-31 renal
[5] = tested on: XF 498 CNS
[6] = tested on: DMS 114 small cell lung
[7] = tested on: COLO 205 colon
[8] = tested on: IGROV1 ovarian
[9] = tested on: EKVX NSCLC
[10] = tested on: UACC-257 melanoma
[11] = tested on: NCI/ADR-RES ovarian
[12] = tested on: HCC-2998 colon
[13] = tested on: NCI-H460 lung
[14] = tested on: OVCAR-5 ovarian
[15] = tested on: KM12 colon
[16] = tested on: SNB-75 CNS
[17] = tested on: SK-MEL-5 melanoma
[18] = tested on: MALME-3M melanoma
[19] = tested on: HCT-15 colon
[20] = tested on: RXF 393 renal
[21] = tested on: OVCAR-3 ovarian
[22] = tested on: HL-60(TB) leukemia
[23] = tested on: MOLT-4 leukemia
[24] = tested on: P388/ADR leukemia
[25] = tested on: MCF7 breast
[26] = tested on: LOX IMVI melanoma
[27] = tested on: M19-MEL melanoma
[28] = tested on: OVCAR-8 ovarian
[29] = tested on: SF-268 CNS
[30] = tested on: SN12K1 renal
[31] = tested on: NCI-H23 lung
[32] = tested on: SN12C renal
[33] = tested on: CCRF-CEM leukemia
[34] = tested on: HOP-92 NSCLC
[35] = tested on: HCT-116 colon
[36] = tested on: SK-MEL-2 melanoma
[37] = tested on: HT29 colon
[38] = tested on: UACC-62 melanoma
[39] = tested on: SK-OV-3 ovarian
[40] = tested on: SK-MEL-28 melanoma
[41] = tested on: OVCAR-4 ovarian
[42] = tested on: DLD-1 colon
[43] = tested on: A498 renal
[44] = tested on: HOP-62 NSCLC
[45] = tested on: A549 NSCLC
[46] = tested on: DMS 273 small cell lung
[47] = tested on: P388 leukemia
[48] = tested on: SW-620 colon
[49] = tested on: K-562 leukemia
[50] = tested on: NCI-H226 lung
[51] = tested on: U251 CNS
[52] = tested on: KM20L2 colon
[53] = tested on: SF-539 CNS
[54] = tested on: NCI-H522 lung
[55] = tested on: RPMI-8226 leukemia
[56] = tested on: SF-295 CNS
[57] = tested on: SNB-78 CNS
[58] = tested on: RXF-631 renal
[59] = tested on: 786-0 renal
[60] = tested on: ACHN renal
[61] = tested on: LXFL 529 NSCLC
[62] = tested on: TK-10 renal
[63] = tested on: M14 melanoma

SMILES: CNC(=O)OCc1c(CO)nc(SC)n1C
- TGI [1]: > 100 µM
- TGI [2]: > 100 µM
- TGI [3]: > 100 µM
- TGI [4]: > 100 µM
- TGI [5]: > 100 µM
- TGI [6]: > 100 µM
- TGI [7]: > 100 µM
- TGI [8]: > 100 µM
- TGI [9]: > 100 µM
- TGI [10]: > 100 µM
- TGI [11]: > 100 µM
- TGI [12]: > 100 µM
- TGI [13]: > 100 µM
- TGI [14]: > 100 µM
- TGI [15]: > 100 µM
- TGI [16]: > 100 µM
- TGI [17]: > 100 µM
- TGI [18]: > 100 µM
- TGI [19]: > 100 µM
- TGI [20]: > 100 µM
- TGI [21]: > 100 µM
- TGI [22]: > 100 µM
- TGI [23]: > 100 µM
- TGI [24]: > 100 µM
- TGI [25]: > 100 µM
- TGI [26]: > 100 µM
- TGI [27]: > 100 µM
- TGI [28]: > 100 µM
- TGI [29]: > 100 µM
- TGI [30]: > 100 µM
- TGI [31]: > 100 µM
- TGI [32]: > 100 µM
- TGI [33]: > 100 µM
- TGI [34]: > 100 µM
- TGI [35]: > 100 µM
- TGI [36]: > 100 µM
- TGI [37]: > 100 µM
- TGI [38]: > 100 µM
- TGI [39]: > 100 µM
- TGI [40]: > 100 µM
- TGI [41]: > 100 µM
- TGI [42]: > 100 µM
- TGI [43]: > 100 µM
- TGI [44]: > 100 µM
- TGI [45]: > 100 µM
- TGI [46]: > 100 µM
- TGI [47]: > 100 µM
- TGI [48]: > 100 µM
- TGI [49]: > 100 µM
- TGI [50]: > 100 µM
- TGI [51]: > 100 µM
- TGI [52]: > 100 µM
- TGI [53]: > 100 µM
- TGI [54]: > 100 µM
- TGI [55]: > 100 µM
- TGI [56]: > 100 µM

SMILES: COc1cc2c(ccc3c4cc(OC)c(OC)cc4c[n+](C)c23)cc1O
- TGI [1]: > 75 µM
- TGI [2]: > 75 µM
- TGI [3]: 32.4 µM
- TGI [4]: > 75 µM
- TGI [5]: 19.2 µM
- TGI [6]: 74.7 µM
- TGI [7]: > 75 µM
- TGI [8]: > 75 µM
- TGI [9]: > 71.5 µM
- TGI [10]: > 75 µM
- TGI [11]: > 75 µM
- TGI [12]: 75 µM
- TGI [13]: > 75 µM
- TGI [14]: > 34.5 µM
- TGI [15]: > 75 µM
- TGI [16]: 16.4 µM
- TGI [17]: 52.7 µM
- TGI [18]: 66.4 µM
- TGI [19]: > 75 µM
- TGI [20]: > 75 µM
- TGI [21]: 54.3 µM
- TGI [22]: > 75 µM
- TGI [23]: 19.2 µM
- TGI [24]: > 75 µM
- TGI [25]: > 75 µM
- TGI [26]: > 75 µM
- TGI [27]: > 75 µM
- TGI [28]: 62 µM
- TGI [29]: 6.09 µM
- TGI [30]: 14 µM
- TGI [31]: 68.3 µM
- TGI [32]: 22.1 µM
- TGI [33]: 34.6 µM
- TGI [34]: > 75 µM
- TGI [35]: > 60.3 µM
- TGI [57]: > 75 µM
- TGI [36]: > 71.5 µM
- TGI [37]: > 75 µM
- TGI [38]: 11.5 µM
- TGI [39]: > 72.2 µM
- TGI [40]: > 75 µM
- TGI [41]: > 65.8 µM
- TGI [42]: > 75 µM
- TGI [43]: 65.8 µM
- TGI [44]: 21 µM
- TGI [45]: > 75 µM
- TGI [46]: > 75 µM
- TGI [47]: 5.21 µM
- TGI [48]: > 47.3 µM
- TGI [49]: > 75 µM
- TGI [50]: 9.14 µM
- TGI [51]: 2.94 µM
- TGI [52]: > 75 µM
- TGI [53]: 28.7 µM
- TGI [54]: 1.86 µM
- TGI [55]: > 75 µM
- TGI [56]: 54.9 µM

SMILES: COC(=O)C(C#CCCCCC#CC(NC(=O)OCc1ccccc1)(C(=O)OC)C(F)(F)F)(NC(=O)OCc1ccccc1)C(F)(F)F (stereo not given)
- TGI [1]: > 100 µM
- TGI [2]: > 100 µM
- TGI [3]: > 100 µM
- TGI [4]: > 100 µM
- TGI [6]: > 100 µM
- TGI [7]: > 100 µM
- TGI [58]: > 100 µM
- TGI [59]: > 100 µM
- TGI [8]: > 100 µM
- TGI [9]: > 100 µM
- TGI [10]: > 100 µM
- TGI [12]: > 100 µM
- TGI [13]: > 100 µM
- TGI [14]: > 100 µM
- TGI [15]: > 100 µM
- TGI [16]: > 100 µM
- TGI [17]: > 100 µM
- TGI [18]: > 100 µM
- TGI [19]: > 100 µM
- TGI [20]: > 100 µM
- TGI [21]: > 100 µM
- TGI [60]: > 100 µM
- TGI [22]: > 100 µM
- TGI [26]: > 100 µM
- TGI [27]: > 100 µM
- TGI [28]: > 100 µM
- TGI [61]: > 100 µM
- TGI [29]: > 100 µM
- TGI [31]: > 100 µM
- TGI [32]: > 100 µM
- TGI [33]: > 100 µM
- TGI [34]: > 100 µM
- TGI [62]: > 100 µM
- TGI [35]: > 100 µM
- TGI [57]: > 100 µM
- TGI [37]: > 100 µM
- TGI [38]: > 100 µM
- TGI [39]: > 100 µM
- TGI [40]: > 100 µM
- TGI [41]: > 100 µM
- TGI [42]: > 100 µM
- TGI [43]: > 100 µM
- TGI [44]: > 100 µM
- TGI [45]: > 100 µM
- TGI [48]: > 100 µM
- TGI [49]: > 100 µM
- TGI [63]: > 100 µM
- TGI [50]: > 100 µM
- TGI [51]: > 100 µM
- TGI [52]: > 100 µM
- TGI [53]: > 100 µM
- TGI [54]: > 100 µM
- TGI [55]: > 100 µM
- TGI [56]: > 100 µM

SMILES: CC(=O)NNc1nc(C)c(C(=O)/C=C/c2ccccc2Cl)s1
- TGI [1]: > 100 µM
- TGI [2]: > 100 µM
- TGI [3]: > 100 µM
- TGI [4]: > 100 µM
- TGI [6]: > 100 µM
- TGI [7]: > 100 µM
- TGI [58]: > 100 µM
- TGI [59]: > 100 µM
- TGI [8]: > 100 µM
- TGI [9]: > 100 µM
- TGI [10]: > 100 µM
- TGI [12]: > 100 µM
- TGI [13]: > 100 µM
- TGI [14]: > 100 µM
- TGI [15]: > 100 µM
- TGI [16]: > 100 µM
- TGI [17]: > 100 µM
- TGI [18]: > 100 µM
- TGI [19]: > 100 µM
- TGI [20]: > 100 µM
- TGI [21]: > 100 µM
- TGI [60]: > 100 µM
- TGI [22]: > 100 µM
- TGI [23]: > 100 µM
- TGI [26]: > 100 µM
- TGI [27]: > 100 µM
- TGI [28]: > 100 µM
- TGI [29]: > 100 µM
- TGI [31]: > 100 µM
- TGI [32]: > 100 µM
- TGI [33]: > 100 µM
- TGI [34]: > 100 µM
- TGI [62]: > 100 µM
- TGI [57]: > 100 µM
- TGI [36]: > 100 µM
- TGI [37]: > 100 µM
- TGI [38]: > 100 µM
- TGI [39]: > 100 µM
- TGI [40]: > 100 µM
- TGI [42]: > 100 µM
- TGI [43]: > 100 µM
- TGI [44]: > 100 µM
- TGI [45]: > 100 µM
- TGI [46]: > 100 µM
- TGI [48]: > 100 µM
- TGI [49]: > 100 µM
- TGI [50]: > 100 µM
- TGI [51]: > 100 µM
- TGI [52]: > 100 µM
- TGI [53]: > 100 µM
- TGI [54]: > 100 µM
- TGI [55]: > 100 µM
- TGI [56]: > 100 µM
